Laboratory results: patent publication US20250221410A1, “SUBSTITUTED 2-C-AZINES AND SALTS THEREOF, AND USE THEREOF AS HERBICIDAL ACTIVE SUBSTANCES” (BAYER AKTIENGESELLSCHAFT, priority 2022, published 2025)

Key:
Type in all cases: in vivo
VERPE: Veronica persica [1] = assay: Post-emergence herbicidal efficacy at 1280 g/ha, VERPE; settings: visual rating about 3 weeks after treatment vs untreated controls
Method: (§1) Seeds of mono- and dicotyledonous weed plants were placed in plastic pots in sandy loam soil (doubly sown with in each case one species of mono- or dicotyledonous weed plants per pot), covered with soil and cultivated in a greenhouse under controlled growth conditions. 2 to 3 weeks after sowing, the test plants were treated at the one-leaf stage. The compounds of the invention, formulated in the form of wettable powders (WP) or as emulsion concentrates (EC), were applied to the green parts of the plants as aqueous suspension or emulsion with addition of 0.5% additive at a water application rate equivalent to 600 litres per hectare. After the test plants had been kept in the greenhouse under optimum growth conditions for about 3 weeks, the activity of the preparations was rated visually in comparison to untreated controls. For example, 100% activity=the plants have died, 0% activity=like control plants. Tables A1 to A12 below show the effects of selected compounds of the general formula (I) according to Table 1 on various harmful plants and at an application rate corresponding to 1280 g/ha, which were obtained by the trial procedure specified above.

[2] = test system: AMARE: Amaranthus retroflexus; assay: Post-emergence herbicidal efficacy at 1280 g/ha, AMARE; settings: rated visually after about 3 weeks vs untreated controls, 100% = plants have died, 0% = like control plants
Method: as §1

STEME: Stellaria media [3] = assay: Post-emergence herbicidal efficacy at 1280 g/ha, STEME; settings: visual rating about 3 weeks after treatment vs untreated controls
Method: as §1

[4] = test system: AMARE: Amaranthus retroflexus; assay: Pre-emergence herbicide efficacy at 1280 g/ha, AMARE; settings: visual scoring after about 3 weeks vs untreated controls
Text: (§2) Seeds of mono- and dicotyledonous weed plants were placed in plastic pots in sandy loam soil (doubly sown with one species each of mono- or dicotyledonous weed plants per pot) and covered with soil. The compounds of the invention, formulated in the form of wettable powders (WP) or as emulsion concentrates (EC), were then applied to the surface of the covering soil as aqueous suspension or emulsion with addition of 0.5% additive at a water application rate of 600 litres per hectare (converted). After the treatment, the pots were placed in a greenhouse and kept under good growth conditions for the test plants. After about 3 weeks, the efficacy of the preparations was scored visually in comparison with untreated controls as percentages. For example, 100% activity=the plants have died, 0% activity=like control plants. Tables C1 to C12 below show the effects of selected compounds of the general formula (I) according to Table 1 on various harmful plants and at an application rate corresponding to 1280 g/ha, which were obtained by the trial procedure specified above.

KCHSC: Kochia scoparia = assay: Post-emergence herbicidal efficacy at 1280 g/ha, KCHSC; settings: visual rating about 3 weeks after treatment vs untreated controls
Method: as §1

[5] = test system: ABUTH: Abutilon theophrasti; assay: Pre-emergence herbicide efficacy at 1280 g/ha, ABUTH; settings: visual scoring after about 3 weeks vs untreated controls
Text: as §2

POAAN: Poa annua [6] = assay: Post-emergence herbicidal efficacy at 1280 g/ha, POAAN; settings: visual rating about 3 weeks after treatment vs untreated controls
Method: as §1

POAAN: Poa annua [7] = assay: Pre-emergence herbicide efficacy at 1280 g/ha, POAAN; settings: visual scoring after about 3 weeks vs untreated controls
Text: as §2

[8] = test system: ABUTH: Abutilon theophrasti; assay: Post-emergence herbicidal efficacy at 1280 g/ha, ABUTH; settings: rated visually after about 3 weeks vs untreated controls, 100% = plants have died, 0% = like control plants
Method: as §1

STEME: Stellaria media [9] = assay: Pre-emergence herbicide efficacy at 1280 g/ha, STEME; settings: visual scoring vs untreated controls
Text: as §2

[10] = test system: ECHCG: Echinochloa crus-galli; assay: Pre-emergence herbicide efficacy at 1280 g/ha, ECHCG; settings: visual scoring after about 3 weeks vs untreated controls
Text: as §2

SETVI: Setaria viridis = assay: Pre-emergence herbicide efficacy at 1280 g/ha, SETVI; settings: visual scoring vs untreated controls
Text: as §2

[11] = test system: DIGSA: Digitaria sanguinalis; assay: Pre-emergence herbicide efficacy at 1280 g/ha, DIGSA; settings: visual scoring after about 3 weeks vs untreated controls
Text: as §2

VERPE: Veronica persica [12] = assay: Pre-emergence herbicide efficacy at 1280 g/ha, VERPE; settings: visual scoring vs untreated controls
Text: as §2

Compound | Post-emergence efficacy against VERPE (VERPE: Veronica persica [1]) [%] | Post-emergence efficacy at 1280 g/ha against AMARE in % [2] [%] | Post-emergence efficacy against STEME (STEME: Stellaria media [3]) [%] | Pre-emergence efficacy against AMARE [4] [%] | Post-emergence efficacy against KCHSC (KCHSC: Kochia scoparia) [%] | Pre-emergence efficacy against ABUTH [5] [%] | Post-emergence efficacy against POAAN (POAAN: Poa annua [6]) [%] | Pre-emergence efficacy against POAAN (POAAN: Poa annua [7]) [%] | Post-emergence efficacy at 1280 g/ha against ABUTH in % [8] [%] | Pre-emergence efficacy against STEME in % (STEME: Stellaria media [9]) [%] | Pre-emergence efficacy against ECHCG [10] [%] | Pre-emergence efficacy against SETVI in % (SETVI: Setaria viridis) [%] | Pre-emergence efficacy against DIGSA [11] [%] | Pre-emergence efficacy against VERPE in % (VERPE: Veronica persica [12]) [%]
Cc1cccc(C(C#N)c2ncc(Cl)cn2)c1Oc1ccc(F)cc1 (racemic) [Example 1-30] | 90 | – | – | – | – | – | – | – | – | – | – | – | – | –
COc1cccc(C(C#N)c2ncc(Cl)cn2)c1Oc1ccc(F)cc1 (racemic) [Example 1-32] | 90 | 90 | 90 | 90 | – | – | – | – | – | – | – | – | – | –
N#CC(c1ncc(Cl)cn1)c1cccc(Br)c1Oc1ccc(F)cc1 (racemic) [Example 1-36] | 90 | – | – | – | – | – | – | – | – | – | – | – | – | –
N#CC(c1ncc(Cl)cn1)c1cccc(C(F)(F)F)c1Oc1ccc(F)cc1 (racemic) [Example 1-39] | 100 | – | – | – | 90 | 100 | – | – | – | – | – | – | – | –
N#CC(c1ncc(Cl)cn1)c1ccccc1-n1cc(C(F)(F)F)cn1 (racemic) [Example 1-41] | 90 | 90 | – | – | – | – | 90 | 90 | 90 | – | – | – | – | –
Fc1cnc(Cc2ccccc2CCCC(F)(F)F)nc1 [Example 1-3] | 90 | 90 | 90 | – | 90 | – | 100 | – | 90 | – | – | – | – | –
FC(F)(F)CCCOc1ccccc1Cc1ncc(Cl)cn1 [Example 1-8] | 100 | – | 90 | 100 | – | – | – | – | – | 90 | 90 | 90 | 100 | –
COc1cccc(Cc2ncc(Cl)cn2)c1Oc1ccc(F)cc1 [Example 1-33] | 90 | – | 90 | 100 | – | – | 90 | 100 | – | 90 | – | 100 | – | 100
N#CC(c1ncc(Cl)cn1)c1cccc(F)c1Oc1ccc(F)cc1 (centres unmarked) [Example 1-34, (5-Chloropyrimidin-2-yl)[3-fluoro-2-(4-fluorophenoxy)phenyl]acetonitrile] | 100 | 90 | 90 | 90 | – | – | – | – | – | 90 | – | – | – | –
Fc1cccc(OCCCC(F)(F)F)c1Cc1ncc(Cl)cn1 [Example 1-60] | 100 | – | – | – | – | – | – | 90 | – | – | – | – | – | 90
N#CC(c1ncc(Cl)cn1)c1ccccc1CCCC(F)(F)F (centres unmarked) [Example 1-68] | – | 100 | – | – | – | – | – | – | – | – | – | – | – | –
N#CC(c1ncc(Cl)cn1)c1ccccc1Cc1ccc(F)cc1 (centres unmarked) [Example 1-69] | 100 | 90 | 90 | – | 90 | 100 | – | – | – | – | – | – | – | –
N#Cc1cccc(C(C#N)c2ncc(Cl)cn2)c1-n1cc(C(F)(F)F)cn1 (centres unmarked) [Example 1-71] | 90 | 100 | 90 | 100 | 100 | – | – | – | – | 90 | – | – | – | –
N#CC(c1ncc(F)cn1)c1ccccc1CCCC(F)(F)F (centres unmarked) [Example 1-72] | – | – | – | – | – | – | – | 90 | – | – | – | – | – | –
N#CC(c1ccc(Cl)cn1)c1ccccc1CCCC(F)(F)F (centres unmarked) [Example 1-73] | 90 | 90 | – | 90 | – | – | – | – | – | – | – | – | – | –
Fc1cc(Cl)cnc1Oc1ccccc1Cc1ncccn1 [Example 1-77] | 90 | 90 | 90 | 100 | – | 90 | 90 | 90 | – | 90 | – | – | 90 | –
N#CC(c1ncc(Cl)cn1)c1ccccc1-c1ccc(F)c(F)c1 (centres unmarked) [Example 1-78] | – | 90 | – | – | – | – | – | 90 | – | – | – | – | – | –
N#CC(c1ncc(F)cn1)c1ccccc1-c1ccc(F)c(F)c1 (centres unmarked) [Example 1-79] | – | – | – | – | – | – | – | 90 | – | – | – | – | – | –
N#CC(c1ccc(Cl)cn1)c1ccccc1-c1ccc(F)c(F)c1 (centres unmarked) [Example 1-80] | 90 | 100 | 90 | 100 | – | 90 | – | 90 | – | 100 | – | – | – | –
N#CC(c1ccc(Cl)cn1)c1ccccc1Cc1ccc(F)cc1 (centres unmarked) [Example 1-82] | 90 | 100 | – | 100 | 90 | 100 | – | 90 | – | 100 | – | – | – | –
FC(F)(F)CCCc1ccccc1Cc1ccc(Cl)cn1 [Example 1-94] | 100 | 90 | – | – | – | – | 90 | – | – | – | – | – | – | –
Fc1ccc(-c2ccccc2Cc2ccc(Cl)cn2)cc1F [Example 1-97] | 100 | 100 | 90 | 100 | 100 | – | 100 | – | 100 | – | – | – | – | –
Fc1ccc(Sc2ccccc2Cc2ccc(Cl)cn2)cc1 [Example 1-105] | 90 | 90 | 90 | 100 | 90 | – | 90 | 100 | 90 | 90 | 90 | – | – | 100
Fc1cnc(Cc2ccccc2SCCC(F)(F)F)nc1 [Example 1-111] | 100 | 100 | 100 | 100 | 100 | – | 100 | – | 90 | – | – | – | 90 | –
Clc1cnc(Cc2ccccc2Sc2ccc(Cl)cc2Cl)nc1 [Example 1-137] | 90 | 100 | 90 | 100 | 90 | – | 90 | 90 | 90 | 100 | – | 100 | – | –
Cc1cc(C)c(-c2cc(C(F)F)no2)c(C(C#N)c2ncc(Cl)cn2)n1 (centres unmarked) [Example 2-6] | – | – | – | 90 | – | 100 | – | – | – | 100 | – | – | 90 | –
